# Measurements published in paper PMC8333062, “Chemical tools for epichaperome-mediated interactome dysfunctions of the central nervous system” (Nature Communications, 2021).
# “And” between values parts separate entries of the source, which are not always exact repeats. Equal values may be shown once. Read-outs that look alike come from different tables or passages of the source.
# Tests used:
# [1] = target: HSP90 pools in JNPL3 (AD transgenic) mouse brain lysate; experiment: Fluorescence polarization (FP) competitive binding, cy3B-GM; conditions: read-out: FP relative affinity
# [2] = for PAMPA_BBB: PAMPA; for PAMPA-BBB: pH 7.4
# PAMPA-BBB permeability = conditions: for PAMPA_BBB: Supplementary Table 6; for Papp at 16 h, 50 μM: pig, PAMPA, pH 7.4
# in vitro = conditions: PAMPA, pH 7.4
# [3] = 10 µM PU-HZ151, 60 min
# Procedure: PU-HZ151 (1 and 10 µM) was incubated with human, CD-1 mouse, Sprague Dawley rat, and beagle dog liver microsomes (0.5 mg protein/ml) and appropriate cofactors (2.5 mM NADPH and 3.3 mM MgCl2) in 100 mM phosphate buffer, pH 7.4, in a 37 °C shaking water bath. The incubation contained a final organic solvent concentration of 0.1% DMSO. Reactions were started with the addition of NADPH/magnesium chloride mix and stopped by removing 100 µL aliquots at selected time points (15, 30, and 60 min) and mixing with 200 µl of acetonitrile containing 100 ng/ml haloperidol (internal standard). […] Experimental controls consisted of: a) incubation with 1 or 5 µM propranolol as a positive control for metabolism, and b) incubation of 1 and 10 µM PU-HZ151 with heat-inactivated microsomes (0.5 mg protein mL^−1) for 0 and 60 min. All samples were assayed in duplicate. To determine metabolic stability of PU-HZ151, the percent remaining at each time point was calculated by dividing the peak area ratio of PU-HZ151 /internal standard at each time point by the mean peak area ratio at 0 min, multiplied by 100.
# In order to detect and characterize metabolites of PU-HZ151 formed in selected microsomal incubation samples, the following procedures were used to prepare the samples: (1) microsomal incubation samples generated in the metabolic stability experiments (1 and 10 µM PU-HZ151, duplicate replicates per timepoint) were initially processed by addition of 2 parts acetonitrile containing the internal standard haloperidol, to 1 part sample, followed by vortexing, centrifugation, and transfer of the supernatant to a 1.5 mL microcentrifuge tube. Samples were stored at −80 °C prior to analysis for metabolites. (2) Samples were thawed to room temperature, vortexed, centrifuged, and a volume of the supernatant diluted 1:1 with 5% acetonitrile, to reduce the percent acetonitrile in the final sample. Samples were then transferred to HPLC vials with glass inserts for subsequent LC-MS analysis.
# Samples were analyzed by LC-MS using positive-ion electrospray ionization and reverse-phase chromatography in full-scan mode with MS/MS product-ion spectra generated for detected metabolite masses. This was performed using the MS2 scan mode of the G6410B mass spectrometer to produce MS/MS product-ion spectra for masses detected at sufficient intensities. Chromatography was performed using a ZORBAX Eclipse XDB-C18 4.6 × 50 mm, 5 µm, column, with gradient elution at 1 mL min^−1. Mobile phase was comprised of A = MilliQ Water with 0.1% formic acid, B = acetonitrile.
# [4] = Pharmacokinetic studies in mice (LC-MS/MS); format: in vivo, B6D2F1 mice; parameters: Plasma level: unit: uM; conditions: individual animals
# Procedure: Blood and brain tissue were collected following euthanasia at the scheduled time points of 5, 30 min, 1, 4, and 8 h following iv dosing and of 30 min, 1, 4, and 8 h following po dosing. Brain samples were immediately flash frozen in liquid nitrogen following collection and stored at −80 °C until analysis. Blood samples were collected into an EDTA tube by heart puncture and centrifuged at 17,000×g for 5 min at 4 °C to separate the plasma and immediately frozen on dry ice and stored at −80 °C until analysis. […] This was homogenized, extracted with methylene chloride, and evaporated on a GeneVac. […] Drug concentration (μM) in the brain was then modified to account for an average water space of 0.8 mL g^−1.
# [5] = displacement of cy3B-GM, 24 h, 4 °C, mean±SD, n=3
SMILES,PAMPA_BBB [2],PAMPA-BBB [2],"EC50 [1, 5] [nM]",further results
Nc1nc(F)nc2c1nc(Cc1cc3c(cc1I)OCO3)n2CCCN1CCOCC1 [Compound 68],6.3±1.1,6.3±1.1 10-6 cms-1,–,EC50 [1]: 202 ± 7 nM
CCc1cc2c(cc1Cc1nc3c(N)nc(F)nc3n1CCCNC(C)C)OCO2 [Compound 21],–,–,813 ± 56,"PAMPA_BBB (PAMPA-BBB permeability): 5.9±0.6; Papp at 16 h, 50 μM (in vitro): 5.9 ± 0.6 ×10⁻⁶ cm/s"
CC(C)NCCCn1c(Sc2cc3c(cc2-c2ccccc2)OCO3)nc2c(N)ncnc21 [Compound 9],9.9±0.5,9.9±0.5 10-6 cms-1,270 ± 10,–
CC(C)N(CCO)CCCn1c(Cc2cc3c(cc2I)OCO3)nc2c(N)nc(F)nc21 [Compound 69],1.1±0.1,1.1±0.1 10-6 cms-1,–,EC50 [1]: 61 ± 2 nM
Nc1ncnc2c1nc(Sc1cc3c(cc1I)OCC3)n2CCCBr [Compound 40],–,–,8 ± 0.4,"PAMPA_BBB (PAMPA-BBB permeability): 7.7±0.8; Papp at 16 h, 50 μM (in vitro): 7.7 ± 0.8 ×10⁻⁶ cm/s"
CC(C)N(C)CCCn1c(Cc2cc3c(cc2I)OCO3)nc2c(N)nc(F)nc21 [Compound 60],5.8±1.3,5.8±1.3 10-6 cms-1,39 ± 2,–
NCCn1c(Sc2cc(O)c(O)cc2I)nc2c(N)ncnc21 [Compound M5],–,–,–,% Peak area of metabolite ([3]; replicate 1): 2.5%; % Peak area of metabolite ([3]; replicate 2): 2.9%
CC(C)NCCCn1c(Sc2cc3c(cc2-c2ccc(N(C)C)cc2)OCO3)nc2c(N)ncnc21 [Compound 12],9.2±0.3,9.2±0.3 10-6 cms-1,1390,–
CCN(CCCn1c(Cc2cc3c(cc2I)OCO3)nc2c(N)nc(F)nc21)C(C)C [Compound 61],7.5±0.2,7.5±0.2 10-6 cms-1,30 ± 13,–
CC(C)NCCCn1c(Sc2cc3c(cc2C#N)OCO3)nc2c(N)ncnc21 [Compound 5],–,–,285 ± 13,–
Nc1nc(F)nc2c1nc(Cc1cc3c(cc1I)OCO3)n2CCCN1CCCCC1 [Compound 67],–,–,112 ± 6,"PAMPA_BBB (PAMPA-BBB permeability): 6.9±0.2; Papp at 16 h, 50 μM (in vitro): 6.9 ± 0.2 ×10⁻⁶ cm/s"
CC(C)NCCCn1c(Cc2cc3c(cc2C#N)OCO3)nc2c(N)nc(F)nc21 [Compound 20],–,–,219 ± 19,–
CC(C)NCCCn1c(Cc2cc(I)c3c(c2)OCO3)nc2c(N)nc(F)nc21 [Compound 17],–,–,85 ± 10,–
C=CCc1cc2c(cc1Cc1nc3c(N)nc(F)nc3n1CCCNC(C)C)OCO2 [Compound 23],–,–,> 5000,"PAMPA_BBB (PAMPA-BBB permeability): 4.6±0.6; Papp at 16 h, 50 μM (in vitro): 4.6 ± 0.6 ×10⁻⁶ cm/s"
C=CCN(C)CCCn1c(Cc2cc3c(cc2I)OCO3)nc2c(N)nc(F)nc21 [Compound 65],11.3±1.9,11.3±1.9 10-6 cms-1,44 ± 4,–
CCCN(CCCn1c(Cc2cc3c(cc2I)OCO3)nc2c(N)nc(F)nc21)CC1CC1 [Compound 63],8.4±2.1,8.4±2.1 10-6 cms-1,43 ± 4,–
CC(=O)c1cc2c(cc1Sc1nc3c(N)ncnc3n1CCCNC(C)C)OCO2 [Compound 6],–,–,103 ± 7,–
CC(C)NCCCn1c(Sc2cc3c(cc2-c2ccc(C(C)(C)C)cc2)OCO3)nc2c(N)ncnc21 [Compound 11],12.5±0.6,12.5±0.6 10-6 cms-1,2600,–
CC(C)CNCCn1c(Sc2cc3c(cc2I)OCO3)nc2c(N)ncnc21 [Compound 84],8.9±0.5,8.9±0.5 10-6 cms-1,14 ± 2,–
CC(C)(C)CNCCn1c(Sc2cc(O)c(O)cc2I)nc2c(N)ncnc21 [Compound M2],–,–,–,Brain level ([4]; time 5 min): 0 (3×) and 0.75 and 0.71; Brain level ([4]; time 0.5 h): 0.02 and 0.49 and 0 (2×); Brain level ([4]; time 1 h): 0 (3×) and 0.04; Brain level ([4]; time 4 h): 0; Brain level ([4]; time 8 h): 0; Plasma level ([4]; time 5 min): 0.04 and 0 (4×); Plasma level ([4]; time 0.5 h): 0.02 and 0 (3×); Plasma level ([4]; time 1 h): 0 (3×) and 0.03; Plasma level ([4]; time 4 h): 0; Plasma level ([4]; time 8 h): 0; % Peak area of metabolite ([3]; replicate 1): 13.0%; % Peak area of metabolite ([3]; replicate 2): 9.0%

SMILES,PAMPA_BBB [2],PAMPA-BBB [2],"EC50 [1, 5] [nM]",further results
C=CCc1cc2c(cc1Sc1nc3c(N)ncnc3n1CCCNC(C)C)OCO2 [Compound 8],6.7±0.7,6.7±0.7 10-6 cms-1,122 ± 4,–
C[N+](C)(C)CCCn1c(Cc2cc3c(cc2I)OCO3)nc2c(N)nc(F)nc21 [Compound 72],–,–,155 ± 5,PAMPA_BBB (PAMPA-BBB permeability): 1.3±0.1
C#CCN(C)CCCn1c(Cc2cc3c(cc2I)OCO3)nc2c(N)nc(F)nc21 [Compound 64],–,–,30 ± 6,"PAMPA_BBB (PAMPA-BBB permeability): 11.1±0.1; Papp at 16 h, 50 μM (PAMPA-BBB permeability): 11.1 ×10⁻⁶ cm/s"
CC(C)NCCCn1c(Sc2cc3ccccc3cc2I)nc2c(N)ncnc21 [Compound 58],10.8±0.2,10.8±0.2 10-6 cms-1,97 ± 3,–
CC(C)NCCCn1c(Sc2cc3c(cc2I)OCCO3)nc2c(N)ncnc21 [Compound 28],–,–,34.5 ± 1.7,"PAMPA_BBB (PAMPA-BBB permeability): 6.6±0.6; Papp at 16 h, 50 μM (in vitro): 6.6 ± 0.6 ×10⁻⁶ cm/s"
CC(C)NCCCn1c(Sc2cc3c(cc2I)OCCCO3)nc2c(N)ncnc21 [Compound 35],–,–,232 ± 10,–
Nc1nc(F)nc2c1nc(Cc1cc3c(cc1I)OCO3)n2CCCN(CCO)C1CCCCC1 [Compound 70],8.5±0.1,8.5±0.1 10-6 cms-1,24 ± 2,–
C=Cc1cc2c(cc1Cc1nc3c(N)nc(F)nc3n1CCCNC(C)C)OCO2 [Compound 22],–,–,146 ± 9,"PAMPA_BBB (PAMPA-BBB permeability): 5.6±0.2; Papp at 16 h, 50 μM (in vitro): 5.6 ± 0.2 ×10⁻⁶ cm/s"
CC(C)CNCCn1c(Sc2cc3c(cc2I)CCO3)nc2c(N)ncnc21 [Compound 86],9.3±0.2,9.3±0.2 10-6 cms-1,5.5 ± 0.6,–
Nc1nc(F)nc2c1nc(Cc1cc3c(cc1I)OCO3)n2CCCN1CCN(CCO)CC1 [Compound 71],4.7±0.5,4.7±0.5 10-6 cms-1,–,EC50 [1]: 200 ± 5 nM
CCN(C)CCCn1c(Cc2cc3c(cc2I)OCO3)nc2c(N)nc(F)nc21 [Compound 62],7.5±0.1,7.5±0.1 10-6 cms-1,45 ± 19,–
CC(C)NCCCn1c(Cc2cc(Br)c3c(c2)OCO3)nc2c(N)nc(F)nc21 [Compound 18],–,–,191 ± 6,–
CC1CN1CCCn1c(Cc2cc3c(cc2I)OCO3)nc2c(N)nc(F)nc21 (centres unmarked) [Compound 66],5.8±1.5,5.8±1.5 10-6 cms-1,–,EC50 [1]: 105 ± 5 nM
C=Cc1cc2c(cc1Sc1nc3c(N)ncnc3n1CCCNC(C)C)OCO2 [Compound 7],6.1±0.1,6.1±0.1 10-6 cms-1,213 ± 7,–
CC(C)(C)NCCCn1c(Cc2cc3c(cc2I)OCO3)nc2c(N)nc(F)nc21 [Compound 59],–,–,12.7 ± 1.6,"PAMPA_BBB (PAMPA-BBB permeability): 13.3±1.4; Papp at 16 h, 50 μM (PAMPA-BBB permeability): 13.3 ×10⁻⁶ cm/s"
CC(C)NCCCn1c(Sc2cc3c(cc2Br)OCO3)nc2c(N)ncnc21 [Compound 3],–,–,122 ± 7,–
CC(C)NCCCn1c(Sc2cc3c(cc2I)CCC3)nc2c(N)ncnc21 [Compound 53],–,–,4.5 ± 0.5,"PAMPA_BBB (PAMPA-BBB permeability): 15.1±0.7; Papp at 16 h, 50 μM (PAMPA-BBB permeability): 15.1 ×10⁻⁶ cm/s"
CC(C)NCCCn1c(Sc2cc3c(cc2-c2ccc(Br)cc2)OCO3)nc2c(N)ncnc21 [Compound 10],–,–,732 ± 13,"PAMPA_BBB (PAMPA-BBB permeability): 11.5±0.4; Papp at 16 h, 50 μM (in vitro): 11.5 ± 0.4 ×10⁻⁶ cm/s"
NCCn1c(Sc2cc3c(cc2I)OCO3)nc2c(N)ncnc21 [Compound M1],–,–,–,Brain level ([4]; time 5 min): 0; Brain level ([4]; time 0.5 h): 0; Brain level ([4]; time 1 h): 0; Brain level ([4]; time 4 h): 0; Brain level ([4]; time 8 h): 0; Plasma level ([4]; time 5 min): 0; Plasma level ([4]; time 0.5 h): 0; Plasma level ([4]; time 1 h): 0; Plasma level ([4]; time 4 h): 0; Plasma level ([4]; time 8 h): 0; % Peak area of metabolite ([3]; replicate 1): 53.0%; % Peak area of metabolite ([3]; replicate 2): 59.1%
